Assay results as given in patent US7183283B2, “Piperidinyl-alkylamino-pyridazinone derivatives, a process for the preparation thereof and pharmaceutical compositions containing said compounds” (Egis Gyogyszergyar RT., priority 2002, dated 2007).

Assays:
rats = test: Elevated plus-maze (anxiolytic effect); format: in vivo, rat; conditions: male Sprague-Dawley rats, po, tested 60 min after treatment, 5 min test time
Description: Tests have been performed as described by Pellow and co-workers [J. Neurosci. Methods, 14, 149 (1985)]. A wooden cross, 15 cm wide with 100 cm long arms was used for the experiments. The sides and ends of two opposite arms of the cross were equipped with 40 cm high walls, however, the arms were open to the 15×15 cm central area (closed arms). The two other opposite arms were not encircled by walls (open arms).
Male Sprague-Dawley rats weighing 200–220 g were used for the experiments. The animals were placed in the central area of the equipment 60 min after treatment and the following four parameters have been observed for the 5 min test time: • time spent in the open arms, • time spent in the closed arms, • number of entries into the open arms, • number of entries into the closed arms.
The effect was expressed as percent increase in either the time (measured in sec) spent in the open arms or number of entries into the open arms. MEDs (minimal effective dose) were determined for each compound regarding the time spent in the open arms. Results are summarized in Table I. Buspiron [8-[4-[4-(2-pyrimidinyl)-1-piperazinyl]-butyl]-8-azaspiro[4,5]decan-7,9-dion] was used as reference compound.

mice = test: Inhibition of spontaneous motor activity (sedative effect); format: in vivo
Experimental: The effect on spontaneous motor activity was investigated according to Borsy and co-workers [Borsy, J. et al, Arch. Int. Pharmacodyn., 124, 180–190 (1960)] in a ten channel Dews instrument, with 1—1 animal in each channel. Animals were placed into the instrument 60 min after per os treatment with either vehicle or test compound, and interruptions of infrared beams were recorded for 30 min. […] Diazepam [7-chloro-1,3-dihydro-1-methyl-5-phenyl-2H-1,4-benzodiazepine-2-one] was used as reference compound.

[1] = mice, per os, placed in Dews instrument 60 min after treatment, recorded for 30 min

Compound	MED (minimal effective dose) regarding the time spent in the open arms (rats)	ID50 (50 percent inhibitory dose), spontaneous motor activity (mice; [1]) [mg/kg po]	ID50 (50 percent inhibitory dose), spontaneous motor activity (mice; mouse, in vivo, 60 min) [mg/kg po]	melting point [°C]
O=C1CC2(CCCC2)CC(=O)N1CCCCN1CCN(c2ncccn2)CC1 [Buspiron, 8-[4-[4-(2-pyrimidinyl)-1-piperazinyl]-butyl]-8-azaspiro[4,5]decan-7,9-dion, reference compound]	3.0 mg/kg po	–	–	–
CN1C(=O)CN=C(c2ccccc2)c2cc(Cl)ccc21 [Diazepam, 7-chloro-1,3-dihydro-1-methyl-5-phenyl-2H-1,4-benzodiazepine-2-one, reference compound]	–	7.0	–	–
Cn1ncc(NCCN2CCC(C(=O)c3ccc(F)cc3O)CC2)cc1=O [Example 1, 5-{2-[4-[1-(4-fluoro-2-hydroxy-phenyl)-methanoyl]-piperidine-1-yl]-ethylamino}-2-methyl-2H-pyridazine-3-one]	≦0.03 mg/kg po	–	>100	200 to 202
Cl.Cl.O=C(c1ccc(F)cc1O)C1CCN(CCNc2cn[nH]c(=O)c2)CC1 [Example 2, 5-{2-[4-[1-(4-fluoro-2-hydroxy-phenyl)-methanoyl]-piperidine-1-yl]-ethylamino}-2H-piridazine-3-one-dihydrochloride]	≦0.3 mg/kg po	>100	–	–
CC(CNc1cnn(C)c(=O)c1)N1CCC(C(=O)c2ccc(F)cc2O)CC1 (stereo not shown) [Example 3, 5-{2-[4-[1-(4-fluoro-2-hydroxy-phenyl)-methanoyl]-piperidine-1-yl]-propylamino}-2-methyl-2H-pyridazine-3-one]	≦0.3 mg/kg po	–	>100	199 to 201
